We go through one molecule from patent publication EP1306084A1, “Compositions for the control of parasitic infestations in fish” (Alpharma AS, priority 1998, dated 1999).

Experiment [1] is described as follows: Specific growth rate after sea transfer (Example 5). In kind it is in vivo, sea trout (Salmo trutta). The following applies: treated groups (oral, bath), after about 13 weeks; control group 0.37%. How it is done:
About 300 sea trout (Salmo trutta) of an average weight of 160 grams were divided into three groups of 100 fish each. One group was given oral treatment for one week before they were transferred to sea at a daily dosage of 4 mg hexaflumuron per kg fish for 5 days. The second group was treated with a bath treatment using a dosage of 5 ppm hexaflumuron for 30 minutes with a formulation containing 10% hexaflumuron, while the last group remained untreated. The treatments were carried out in fresh water during the last week before the fish were transferred to sea water. In the sea water, the fish were distributed into 3 mini-cages with 100 fish in each. The fish were then exposed to natural sea lice infection. Lice from 6-10 fish from each cage were counted every third week to assess whether there was any difference in the number of lice between the cages. At the end of the trial, i.e. about 13 weeks after the fish had been transferred to sea, the fish in each cage were weighed to check possible differences in SGR. The water temperature varied within the range of 12 - 22°C during the trial.
After 11 weeks there was no difference between the groups, but the number of lice was very low in all groups, which makes it difficult to determine the length of the protection period. […] The SGR was determined after about 13 weeks. […]

Another experiment concerns sea lice. Kind of experiment: Oral treatment in freshwater before sea transfer, sea lice counts after natural infection (Example 4). It is filed as in vivo, salmon (Salmo salar). The procedure: The treatment dosage was 9 mg hexaflumuron per kg fish per day for 10 days. This is indicated by "Groups/Timepoints" in the figure; • Figure 2 relates to the trial in Example 2 that was carried out on Atlantic salmon (Salmo salar). […] The treatment dosage varied between 3 - 9 mg hexaflumuron and 9- 12 mg fluazuron per kg fish per day for 7 days. This is indicated by "Groups/Timepoints" in the diagram. […] The treated groups are compared to an untreated control group. The treatment dosage was 4 mg hexaflumuron per kg fish per day for 5 days. This is indicated by "Groups/Timepoints" in the figure. Cage 2 = controls, Cage 4-6 = treated groups, 16.6.97 = time point for sea transfer and 5.8.97= controls treated by bathing with deltamethrin; • Figure 4 relates to the trial described in Example 5, which was carried out on sea trout (Salmo trutta). […] The treated groups are compared with an untreated control group. The dosage for oral treatment was 4 mg hexaflumuron per kilo fish per day for 5 days, and 5 ppm hexaflumuron as a 30 minute bath treatment. This is indicated by "Groups/Timepoints" in the figure. Cage 1.4 = Controls, cage 1.3 = Oral treatment, cage 1.2 = Bath treatment. […] The treated groups are compared with an untreated control group, and one group that has been treated orally with teflubenzuron (10 mg/kg of teflubenzuron per kg fish per day for 7 days). The dosage for oral treatment was 5.6 mg hexaflumuron per kg fish per day for 7 days, and 5 ppm hexaflumuron as a 30 minute bath treatment. […] End of treatment: 22.10.97, Sea transfer: 23.10.97. […]
About 2,500 salmon (Salmo salar) of average weight 42 grams were treated orally with a daily dosage of 4 mg hexaflumuron per kilo fish for 5 days. […] The number of lice on 10 fish from each cage were counted every third week to check if there was any difference in the number of lice in the cages. […]

Molecules are shown by their SMILES.

As to `O=C(NC(=O)c1c(F)cccc1F)Nc1cc(Cl)c(OC(F)(F)C(F)F)c(Cl)c1` [hexaflumuron], the SGR in experiment [1] was 0.84 - 0.98%. In addition, the “protection from sea lice infestation after transfer to sea” value in the experiment with sea lice (oral 4 mg per kilo fish daily for 5 days in freshwater) is 6-9 weeks. The “number of lice larger than Chalimus II versus control” value with sea lice (oral 4 mg per kilo fish daily for 5 days, 3 and 6 weeks after sea transfer) was “significantly lower”.
